Experimental data from ChEMBL document CHEMBL3872259, “Synthesis, characterization, and in vitro SAR evaluation of N,N'-bis(arylmethyl)-C2-alkyl substituted imidazolium salts” (Bioorg Med Chem Lett, 2017).

Assay: Antiproliferative activity against human HOP62 cells assessed as cell growth at 10 uM measured after 48 hrs by sulforhodamine B assay relative to control
Type: functional
Conditions: HOP-62, 48 h, read-out: Activity

Row | SMILES | growth at 10 µM
1 | CCc1n(Cc2ccc3ccccc3n2)cc[n+]1Cc1ccc2ccccc2c1.[Br-] | 1.85%
2 | CCCCc1n(Cc2ccc3ccccc3n2)cc[n+]1Cc1ccc2ccccc2n1.[Cl-] | 25.2%

Assay: Antiproliferative activity against human EKVX cells assessed as cell growth at 10 uM measured after 48 hrs by sulforhodamine B assay relative to control
Type: functional
Conditions: read-out: Activity

Row | SMILES | growth at 10 µM
3 | CCc1n(Cc2ccc3ccccc3n2)cc[n+]1Cc1ccc2ccccc2c1.[Br-] | 15.9%
4 | CCCCc1n(Cc2ccc3ccccc3n2)cc[n+]1Cc1ccc2ccccc2n1.[Cl-] | 50.9%

Assay: Antiproliferative activity against human A549/ATCC cells assessed as cell growth at 10 uM measured after 48 hrs by sulforhodamine B assay relative to control
Type: functional
Conditions: A549, 48 h, read-out: Activity

Row | SMILES | growth at 10 µM
5 | CCc1n(Cc2ccc3ccccc3n2)cc[n+]1Cc1ccc2ccccc2c1.[Br-] | 37.3%
6 | CCCCc1n(Cc2ccc3ccccc3n2)cc[n+]1Cc1ccc2ccccc2n1.[Cl-] | 44.8%

Assay: Antiproliferative activity against human NCI-H460 cells assessed as reduction in cell viability measured after 72 hrs by MTT assay
Type: functional, cell-based
Conditions: NCI-H460, 72 h

Row | SMILES | GI50 | IC50 | TGI
7 | CCc1n(Cc2ccc3ccccc3n2)cc[n+]1Cc1ccc2ccccc2c1.[Br-] | 0.456 µM | 2 µM | 10.8 µM
8 | CCCCc1n(Cc2ccc3ccccc3n2)cc[n+]1Cc1ccc2ccccc2n1.[Cl-] | 2.17 µM | 5 µM | 11.6 µM

Same assay, conditions: NCI-H460, 72 h, read-out: LC50 (the source's name)

Row | SMILES | CC50
9 | CCc1n(Cc2ccc3ccccc3n2)cc[n+]1Cc1ccc2ccccc2c1.[Br-] | 49.5 µM
10 | CCCCc1n(Cc2ccc3ccccc3n2)cc[n+]1Cc1ccc2ccccc2n1.[Cl-] | 38.5 µM

Assay: Antiproliferative activity against human NCI-H1975 cells assessed as reduction in cell viability measured after 72 hrs by MTT assay
Type: functional, cell-based
Conditions: NCI-H1975, 72 h

Row | SMILES | IC50
11 | CCc1n(Cc2ccc3ccccc3n2)cc[n+]1Cc1ccc2ccccc2c1.[Br-] | < 1 µM
12 | CCCCc1n(Cc2ccc3ccccc3n2)cc[n+]1Cc1ccc2ccccc2n1.[Cl-] | < 1 µM

Assay: Antiproliferative activity against human HCC827 cells assessed as reduction in cell viability measured after 72 hrs by MTT assay
Type: functional, cell-based
Conditions: HCC827, 72 h

Row | SMILES | IC50
13 | CCc1n(Cc2ccc3ccccc3n2)cc[n+]1Cc1ccc2ccccc2c1.[Br-] | 5 µM
14 | CCCCc1n(Cc2ccc3ccccc3n2)cc[n+]1Cc1ccc2ccccc2n1.[Cl-] | 7 µM

Assay: Antiproliferative activity against human A549 cells assessed as reduction in cell viability measured after 72 hrs by MTT assay
Type: functional, cell-based
Conditions: A549, 72 h

Row | SMILES | GI50 | IC50 | LC50 | TGI
15 | CCc1n(Cc2ccc3ccccc3n2)cc[n+]1Cc1ccc2ccccc2c1.[Br-] | 0.997 µM | 3 µM | 46.1 µM | 14.1 µM
16 | CCCCc1n(Cc2ccc3ccccc3n2)cc[n+]1Cc1ccc2ccccc2n1.[Cl-] | 4.76 µM | 7 µM | 47.6 µM | 18.5 µM

Assay: Aqueous solubility of the compound
Type: physicochemical
Conditions: buffer

Row | SMILES | solubility
17 | CCc1n(Cc2ccc3ccccc3n2)cc[n+]1Cc1ccc2ccccc2c1.[Br-] | 5 mM
18 | CCCCc1n(Cc2ccc3ccccc3n2)cc[n+]1Cc1ccc2ccccc2n1.[Cl-] | > 80 mM

Assay: Antiproliferative activity against human HOP92 cells assessed as cell growth at 10 uM measured after 48 hrs by sulforhodamine B assay relative to control
Type: functional
Conditions: HOP-92, 48 h, read-out: Activity

Row | SMILES | growth at 10 µM
19 | CCc1n(Cc2ccc3ccccc3n2)cc[n+]1Cc1ccc2ccccc2c1.[Br-] | -20.1%
20 | CCCCc1n(Cc2ccc3ccccc3n2)cc[n+]1Cc1ccc2ccccc2n1.[Cl-] | 4.31%

Assay: Antiproliferative activity against human NCI-H226 cells assessed as cell growth at 10 uM measured after 48 hrs by sulforhodamine B assay relative to control
Type: functional
Conditions: NCI-H226, 48 h, read-out: Activity

Row | SMILES | growth at 10 µM
21 | CCc1n(Cc2ccc3ccccc3n2)cc[n+]1Cc1ccc2ccccc2c1.[Br-] | 19.6%
22 | CCCCc1n(Cc2ccc3ccccc3n2)cc[n+]1Cc1ccc2ccccc2n1.[Cl-] | 26.7%

Assay: Antiproliferative activity against human NCI-H23 cells assessed as cell growth at 10 uM measured after 48 hrs by sulforhodamine B assay relative to control
Type: functional
Conditions: NCI-H23, 48 h, read-out: Activity

Row | SMILES | growth at 10 µM
23 | CCc1n(Cc2ccc3ccccc3n2)cc[n+]1Cc1ccc2ccccc2c1.[Br-] | -4.2%
24 | CCCCc1n(Cc2ccc3ccccc3n2)cc[n+]1Cc1ccc2ccccc2n1.[Cl-] | 4.77%

Assay: Antiproliferative activity against human NCI-H322M cells assessed as cell growth at 10 uM measured after 48 hrs by sulforhodamine B assay relative to control
Type: functional
Conditions: read-out: Activity

Row | SMILES | growth at 10 µM
25 | CCc1n(Cc2ccc3ccccc3n2)cc[n+]1Cc1ccc2ccccc2c1.[Br-] | 34.8%
26 | CCCCc1n(Cc2ccc3ccccc3n2)cc[n+]1Cc1ccc2ccccc2n1.[Cl-] | 41.4%

Assay: Antiproliferative activity against human NCI-H460 cells assessed as cell growth at 10 uM measured after 48 hrs by sulforhodamine B assay relative to control
Type: functional
Conditions: NCI-H460, 48 h, read-out: Activity

Row | SMILES | growth at 10 µM
27 | CCc1n(Cc2ccc3ccccc3n2)cc[n+]1Cc1ccc2ccccc2c1.[Br-] | 11.1%
28 | CCCCc1n(Cc2ccc3ccccc3n2)cc[n+]1Cc1ccc2ccccc2n1.[Cl-] | 16.5%

Assay: Antiproliferative activity against human NCI-H522 cells assessed as cell growth at 10 uM measured after 48 hrs by sulforhodamine B assay relative to control
Type: functional
Conditions: NCI-H522, 48 h, read-out: Activity

Row | SMILES | growth at 10 µM
29 | CCc1n(Cc2ccc3ccccc3n2)cc[n+]1Cc1ccc2ccccc2c1.[Br-] | -27.4%
30 | CCCCc1n(Cc2ccc3ccccc3n2)cc[n+]1Cc1ccc2ccccc2n1.[Cl-] | 10%

Assay: Growth inhibition of human EKVX cells measured after 48 hrs by sulforhodamine B assay
Type: functional
Conditions: not given

Row | SMILES | GI50 | TGI
31 | CCc1n(Cc2ccc3ccccc3n2)cc[n+]1Cc1ccc2ccccc2c1.[Br-] | 0.442 µM | 7.34 µM
32 | CCCCc1n(Cc2ccc3ccccc3n2)cc[n+]1Cc1ccc2ccccc2n1.[Cl-] | 4 µM | 22 µM

Same assay, conditions: read-out: LC50 (the source's name)

Row | SMILES | CC50
33 | CCc1n(Cc2ccc3ccccc3n2)cc[n+]1Cc1ccc2ccccc2c1.[Br-] | 38.7 µM
34 | CCCCc1n(Cc2ccc3ccccc3n2)cc[n+]1Cc1ccc2ccccc2n1.[Cl-] | 72.4 µM

Assay: Growth inhibition of human HOP62 cells measured after 48 hrs by sulforhodamine B assay
Type: functional
Conditions: HOP-62, 48 h

Row | SMILES | GI50 | TGI
35 | CCc1n(Cc2ccc3ccccc3n2)cc[n+]1Cc1ccc2ccccc2c1.[Br-] | 1.4 µM | 7.02 µM
36 | CCCCc1n(Cc2ccc3ccccc3n2)cc[n+]1Cc1ccc2ccccc2n1.[Cl-] | 2.8 µM | 12 µM

Same assay, conditions: HOP-62, 48 h, read-out: LC50 (the source's name)

Row | SMILES | CC50
37 | CCc1n(Cc2ccc3ccccc3n2)cc[n+]1Cc1ccc2ccccc2c1.[Br-] | 32.1 µM
38 | CCCCc1n(Cc2ccc3ccccc3n2)cc[n+]1Cc1ccc2ccccc2n1.[Cl-] | 39.8 µM

Assay: Growth inhibition of human HOP92 cells measured after 48 hrs by sulforhodamine B assay
Type: functional
Conditions: HOP-92, 48 h

Row | SMILES | GI50 | TGI
39 | CCc1n(Cc2ccc3ccccc3n2)cc[n+]1Cc1ccc2ccccc2c1.[Br-] | 0.184 µM | 0.671 µM
40 | CCCCc1n(Cc2ccc3ccccc3n2)cc[n+]1Cc1ccc2ccccc2n1.[Cl-] | 0.339 µM | 3.36 µM

Same assay, conditions: HOP-92, 48 h, read-out: LC50 (the source's name)

Row | SMILES | CC50
41 | CCc1n(Cc2ccc3ccccc3n2)cc[n+]1Cc1ccc2ccccc2c1.[Br-] | 7.04 µM
42 | CCCCc1n(Cc2ccc3ccccc3n2)cc[n+]1Cc1ccc2ccccc2n1.[Cl-] | 20.1 µM

Assay: Growth inhibition of human NCI-H226 cells measured after 48 hrs by sulforhodamine B assay
Type: functional
Conditions: NCI-H226, 48 h

Row | SMILES | GI50 | TGI
43 | CCc1n(Cc2ccc3ccccc3n2)cc[n+]1Cc1ccc2ccccc2c1.[Br-] | 1.06 µM | 4.87 µM
44 | CCCCc1n(Cc2ccc3ccccc3n2)cc[n+]1Cc1ccc2ccccc2n1.[Cl-] | 2.37 µM | 13.6 µM

Same assay, conditions: NCI-H226, 48 h, read-out: LC50 (the source's name)

Row | SMILES | CC50
45 | CCc1n(Cc2ccc3ccccc3n2)cc[n+]1Cc1ccc2ccccc2c1.[Br-] | 39.4 µM
46 | CCCCc1n(Cc2ccc3ccccc3n2)cc[n+]1Cc1ccc2ccccc2n1.[Cl-] | 60.3 µM

Assay: Growth inhibition of human NCI-H23 cells measured after 48 hrs by sulforhodamine B assay
Type: functional
Conditions: NCI-H23, 48 h

Row | SMILES | GI50 | TGI
47 | CCc1n(Cc2ccc3ccccc3n2)cc[n+]1Cc1ccc2ccccc2c1.[Br-] | 0.311 µM | 3.23 µM
48 | CCCCc1n(Cc2ccc3ccccc3n2)cc[n+]1Cc1ccc2ccccc2n1.[Cl-] | 0.48 µM | 7.27 µM

Same assay, conditions: NCI-H23, 48 h, read-out: LC50 (the source's name)

Row | SMILES | CC50
49 | CCc1n(Cc2ccc3ccccc3n2)cc[n+]1Cc1ccc2ccccc2c1.[Br-] | 37 µM
50 | CCCCc1n(Cc2ccc3ccccc3n2)cc[n+]1Cc1ccc2ccccc2n1.[Cl-] | 43.6 µM

Assay: Growth inhibition of human NCI-H322M cells measured after 48 hrs by sulforhodamine B assay
Type: functional
Conditions: not given

Row | SMILES | GI50 | TGI
51 | CCc1n(Cc2ccc3ccccc3n2)cc[n+]1Cc1ccc2ccccc2c1.[Br-] | 2.86 µM | 13.8 µM
52 | CCCCc1n(Cc2ccc3ccccc3n2)cc[n+]1Cc1ccc2ccccc2n1.[Cl-] | 3.57 µM | 16.3 µM

Same assay, conditions: read-out: LC50 (the source's name)

Row | SMILES | CC50
53 | CCc1n(Cc2ccc3ccccc3n2)cc[n+]1Cc1ccc2ccccc2c1.[Br-] | 38.1 µM
54 | CCCCc1n(Cc2ccc3ccccc3n2)cc[n+]1Cc1ccc2ccccc2n1.[Cl-] | 42 µM

Assay: Growth inhibition of human NCI-H522 cells measured after 48 hrs by sulforhodamine B assay
Type: functional
Conditions: NCI-H522, 48 h

Row | SMILES | GI50 | LC50 (50% lethal concentration) | TGI
55 | CCc1n(Cc2ccc3ccccc3n2)cc[n+]1Cc1ccc2ccccc2c1.[Br-] | 0.275 µM | 13.3 µM | 0.986 µM
56 | CCCCc1n(Cc2ccc3ccccc3n2)cc[n+]1Cc1ccc2ccccc2n1.[Cl-] | 0.435 µM | 32 µM | 4.19 µM
